This experiment relates to STZ induced diabetic rats. Put plainly: Reduction in serum glucose in STZ induced diabetic rats. Type of experiment: in vivo, Wistar rats. The following applies: 10 IU/Kg insulin via subcutaneous route. As for the experimental part: Wistar rats (150-200 g) of both sexes were obtained from National Institute of Nutrition, Hyderabad. The animals were housed at a room temperature of 22±2° C. with 12 h light/dark cycle and 45-50% relative humidity. The animals had ad libitum access to a standard chow diet (Nutrilab, Banglore) and water except, wherever indicated. After randomization into various groups, the rats were acclimatized for a period of seven days in the new environment before initiation of the experiment.
Diabetes was induced by streptozotocin (STZ) injection. STZ in rats leads to the development of a clinical syndrome characterized by hyperglycemia, excessive osmotic diuresis, and loss of weight, which is similar to human diabetes. Moreover, the STZ-diabetic rat develops the usual chronic microvascular complications (nephropathy, peripheral and autonomic neuropathy) as observed in diabetic patients. Schaan, B. D., et al. Braz J Med Biol Res, 37:12:1895-1902 (2004).
Animals were made diabetic by injecting 50-60 mg/kg STZ dissolved in sodium citrate buffer, pH 4.5. Rats were fasted overnight before STZ administration. STZ-treated rats were used only when they developed elevated plasma glucose levels (confirmed by qualitative measurements of blood glucose >300 mg% 48 h after injection). Metabolic control was evaluated on the basis of plasma glucose and animal weight at the end of the experiments.
The diabetic rats were randomly divided in to six groups consisting of 4 animals. The lyophilized lectin coupled insulin loaded solid lipid nanoparticle formulations (F1, F2, F3 and F4), mentioned in the above examples, containing 10 IU/Kg of total insulin were administered orally to the respective groups after re-dispersing in the appropriate volume of physiological saline solution. The fifth group was treated with 10 IU/Kg of insulin via subcutaneous route and the sixth group was the control group. The control diabetic rats were not treated with insulin or any drug, but an equivalent volume of physiological saline solution was given orally.
The blood samples were collected at each scheduled time intervals. The plasma was separated by centrifugation and serum glucose levels were estimated as described in Bergmeyer, H. U. Methods of Enzymatic Analysis New York: Academic (1974). Plasma samples of all animals were stored at −80° C. until analyzed.

Data on one substance can be found in US20080311214A1, “Polymerized solid lipid nanoparticles for oral or mucosal delivery of therapeutic proteins and peptides” (Transgene Biotek Limited, priority 2006, published 2008).

insulin [Unencapsulated Insulin]: the “Mean % Reduction in serum Glucose Levels” value (2.0 hrs) is 8.2 ± 2.3%; the “Mean % Reduction in serum Glucose Levels” value (3.0 hrs) is 15.1 ± 1.2%; the “Mean % Reduction in serum Glucose Levels” value (4.0 hrs) came to 23.2 ± 3.2%; the “Mean % Reduction in serum Glucose Levels” value (5.0 hrs) turned out to be 36.2 ± 1.2%; the “Mean % Reduction in serum Glucose Levels” value (6.0 hrs) is listed as 12.1 ± 4.3%; the “Mean % Reduction in serum Glucose Levels” value (8.0 hrs) stood at 19.2 ± 3.3%. Moreover, the “Mean % Reduction in serum Glucose Levels” value amounted to 25.1 ± 3.2% (10.0 hrs) and 29.2 ± 1.2% (12.0 hrs).
